# Experiments:
# [1] = Single dose study of dose proportionality of IR OXN tablets in healthy subjects (Example 2); assay type: in vivo, human; conditions: after IR OXN tablets, particularly with the lower doses
# Text: The study was an open-label, single-dose, 4-treatment, 4-period, randomised crossover study in healthy male and female subjects conducted at a single study centre. […] Subjects received each of the four treatments according to a random allocation schedule (RAS), with at least a 7-day washout period between each dosing.
# Subjects attended a screening visit within 21 days of the first dosing day of Study Period 1. Eligible subjects then checked into the study unit on the day before dosing in each study period. Subjects were administered the appropriate study drug in a fasted state the following morning. […]
# The following pharmacokinetic parameters were calculated from the plasma concentrations of oxycodone, noroxycodone, oxymorphone, noroxymorphone, naloxone, 6β-naloxol, naloxone-3-glucuronide and 6β-naloxol-3-glucuronide: • Area under the plasma concentration-time curve measured from the time of dosing to the last measurable concentration (AUCt) • Area under the plasma concentration-time curve measured from the time of dosing and extrapolated to infinity (AUCinf) • Maximum observed plasma concentration (Cmax) • Time of maximum observed plasma concentration (tmax) • Terminal phase rate constant (LambdaZ) • Terminal phase half-life (t1/2Z) […]
# AUCt values were calculated using the linear trapezoidal method. […]
# [2] = Single dose bioavailability study of IR OXN 20/10 vs oxycodone IR capsule 20 mg and OXN PR 20/10 (Targin) in healthy subjects (Example 3); assay type: in vivo, human; conditions: oral, from the study treatments
# Experimental: The study was an open-label, single-dose, 3-treatment, 3-period, randomised crossover. Each subject received single oral doses of IR OXN tablet 20/10 mg, oxycodone IR capsule 20 mg and OXN PR tablet 20/10 mg (Targin®). Subjects received each of the three treatments according to a random allocation schedule (RAS), with at least a 7-day washout period between each dosing.
# Subjects attended a screening visit within 21 days of the first dosing day of Study Period 1. Eligible subjects then checked into the study unit on the day before dosing in each study period. Subjects were administered the appropriate study drug in a fasted state the following morning.
# Pharmacokinetic blood samples were taken for 36 hours after administration of study drug in each study period, and subjects were discharged after the 36-hour blood sample.
# IR OXN tablet 20/10 mg. The treatment was administered orally, in a fasted state, as follows: […]
# Log-transformed data for the analytes oxycodone, noroxycodone, oxymorphone, noroxymorphone, naloxone, 6β-naloxol, naloxone-3-glucuronide and 6β-naloxol-3-glucuronide and the pharmacokinetic parameters AUCt, AUCINF and Cmax were analysed using a mixed effect linear model 18, with fixed terms for treatment and period and a random effect for subject.
# Treatment ratios/differences and their associated 90% confidence intervals were calculated from the least square means.
smiles,measurement,setting,value
"C=CCN1CC[C@]23c4c5ccc(O)c4O[C@H]2C(=O)CC[C@@]3(O)[C@H]1C5 [Naloxone, naloxone]",plasma concentrations of naloxone,[1],extremely low
same,bioavailability of naloxone,[2],very low
